The values that follow come from ChEMBL document CHEMBL5614376, “Discovery of MT-1207: A Novel, Potent Multitarget Inhibitor as a Promising Clinical Candidate for the Treatment of Hypertension” (J Med Chem, 2024).

SMILES strings stand for the structures.

Common to all, as to type: cell membranes
The target in experiment [1] is T1, 5-hydroxytryptamine receptor 2A (Homo sapiens, UniProt P28223). Briefly: Displacement of [3H]Ketanserin from recombinant human 5-HT2A receptor extracted from CHO cell membrane at 100 nM incubated for 60 mins by radioligand binding assay relative to control.
Experiment [2] has as its target T2, Alpha-1A adrenergic receptor (Homo sapiens) (UniProt P35348).
T2 sequence (whole entry): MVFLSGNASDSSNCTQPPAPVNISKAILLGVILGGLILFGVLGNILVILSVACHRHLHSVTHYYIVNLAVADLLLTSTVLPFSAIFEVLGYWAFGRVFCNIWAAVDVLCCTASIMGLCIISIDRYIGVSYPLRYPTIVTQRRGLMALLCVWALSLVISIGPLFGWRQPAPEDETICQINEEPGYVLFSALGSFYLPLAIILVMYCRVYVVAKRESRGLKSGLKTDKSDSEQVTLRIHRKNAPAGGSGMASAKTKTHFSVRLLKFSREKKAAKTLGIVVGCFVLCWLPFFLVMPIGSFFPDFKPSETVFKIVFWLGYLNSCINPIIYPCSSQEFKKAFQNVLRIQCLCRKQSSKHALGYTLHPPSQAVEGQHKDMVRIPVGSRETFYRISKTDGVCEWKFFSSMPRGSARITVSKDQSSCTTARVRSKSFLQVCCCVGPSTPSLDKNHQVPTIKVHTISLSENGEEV
Briefly: Displacement of [3H]prazosin from recombinant human alpha 1A adrenoceptor extracted from CHO cell membrane at 10 nM incubated for 60 mins by radioligand binding assay relative to control.

For experiment [3], the target named is T1, 5-hydroxytryptamine receptor 2A. Briefly: Displacement of [3H]Ketanserin from recombinant human 5-HT2A receptor extracted from CHO cell membrane at 10 nM incubated for 60 mins by radioligand binding assay relative to control.
Experiment [4] deals with T2, Alpha-1A adrenergic receptor (Homo sapiens). Briefly: Displacement of [3H]prazosin from recombinant human alpha 1A adrenoceptor extracted from CHO cell membrane at 1 nM incubated for 60 mins by radioligand binding assay relative to control.
Experiment [5] has the same target. Briefly: Displacement of [3H]prazosin from recombinant human alpha 1A adrenoceptor extracted from CHO cell membrane at 100 nM incubated for 60 mins by radioligand binding assay relative to control.
The target of experiment [6] is T1, 5-hydroxytryptamine receptor 2A. Briefly: Displacement of [3H]Ketanserin from recombinant human 5-HT2A receptor extracted from CHO cell membrane at 1 nM incubated for 60 mins by radioligand binding assay relative to control.

T1 sequence (P28223 whole entry): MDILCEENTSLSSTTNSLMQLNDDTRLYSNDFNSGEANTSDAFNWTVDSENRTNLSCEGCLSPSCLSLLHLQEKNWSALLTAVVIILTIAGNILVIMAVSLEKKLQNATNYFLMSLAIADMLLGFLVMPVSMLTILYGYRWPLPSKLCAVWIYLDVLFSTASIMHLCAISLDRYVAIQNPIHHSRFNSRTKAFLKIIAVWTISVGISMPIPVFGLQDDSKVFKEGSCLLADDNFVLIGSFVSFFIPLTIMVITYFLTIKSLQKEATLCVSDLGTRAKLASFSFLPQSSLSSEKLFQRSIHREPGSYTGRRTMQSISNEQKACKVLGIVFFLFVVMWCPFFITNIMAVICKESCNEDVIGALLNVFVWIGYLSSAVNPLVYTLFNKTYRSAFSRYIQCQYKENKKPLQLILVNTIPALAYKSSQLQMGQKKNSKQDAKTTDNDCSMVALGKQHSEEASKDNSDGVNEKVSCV

With `Fc1ccc2c(N3CCN(CCCn4nnc5ccccc54)CC3)noc2c1`, the inhibition turned out to be 95.8% in experiment [1] (filed as antagonist); 86.2% in experiment [2] (filed as antagonist); 80.9% in experiment [3] (filed as antagonist); 46% in experiment [4] (filed as antagonist); 95.3% in experiment [5] (filed as antagonist).
With `Fc1ccc2ncn(CCCCN3CCN(c4cccc(C(F)(F)F)c4)CC3)c2c1`, the inhibition in experiment [1] was 26.1%; in experiment [2] it was 34.7%; in experiment [4] it was -7.67%; in experiment [5] (filed as antagonist), 79.7%.
For the compound `Fc1ccc2c(N3CCN(CCCCn4nc5ccccc5n4)CC3)noc2c1`, the inhibition in experiment [1] (filed as antagonist) is 96.5%; in experiment [2] (filed as antagonist) it was 99%; in experiment [3] (filed as antagonist), 61.1%; in experiment [4] (filed as antagonist), 83.1%; in experiment [5] (filed as antagonist), 101%.
For `Fc1cccc(N2CCN(CCCCn3nnc4ccccc43)CC2)c1`, the inhibition is 54% in experiment [1] (filed as antagonist); 46.6% in experiment [2] (filed as antagonist); -2.88% in experiment [3]; -7.76% in experiment [4]; 91% in experiment [5] (filed as antagonist).
Take `FC(F)(F)c1cccc(N2CCN(CCCn3nnc4ccccc43)CC2)c1`: the inhibition is 64.5% in experiment [1] (filed as antagonist), -2.01% in experiment [2], -6.65% in experiment [3] and 61.3% in experiment [5] (filed as antagonist).
For the compound `c1ccc2c(c1)ncn2CCCCN1CCN(c2nsc3ccccc23)CC1`, the inhibition was 15.4% in experiment [6]; 99.6% in experiment [1] (filed as antagonist); 98.9% in experiment [2] (filed as antagonist); 93.4% in experiment [3] (filed as antagonist); 78% in experiment [4] (filed as antagonist); 99.8% in experiment [5] (filed as antagonist).
For `Fc1ccc2c(N3CCN(CCCn4nc5ccccc5n4)CC3)noc2c1`, the inhibition was 5.91% in experiment [6]; 99.1% in experiment [1] (filed as antagonist); 65.1% in experiment [2] (filed as antagonist); 79.1% in experiment [3] (filed as antagonist); 29.5% in experiment [4]; 99.1% in experiment [5] (filed as antagonist).
With `Clc1cccc(N2CCN(CCCCn3nnc4ccccc43)CC2)c1`, the inhibition was determined as 77.6% in experiment [1] (filed as antagonist); 74.2% in experiment [2] (filed as antagonist); 17.2% in experiment [3]; 5.9% in experiment [4]; 97.4% in experiment [5] (filed as antagonist).
Consider `Clc1cccc(N2CCN(CCCCn3cnc4ccccc43)CC2)c1Cl`, for which the inhibition is 55% in experiment [1] (filed as antagonist); 27% in experiment [2]; -5.13% in experiment [3]; 11.7% in experiment [4]; 78% in experiment [5] (filed as antagonist).
For the compound `FC(F)(F)c1cccc(N2CCN(CCCCn3cnc4ccccc43)CC2)c1`, the inhibition was 37.7% in experiment [1], 36.4% in experiment [2], -1.42% in experiment [4] and 89.3% in experiment [5] (filed as antagonist).
The corresponding values for `c1ccc(N2CCN(CCCCn3nnc4ccccc43)CC2)cc1` are 39.2%, 35%, -9.51% and 79.6%.
For the compound `Fc1ccc2c(C3CCN(CCCn4nnc5ccccc54)CC3)noc2c1`, the inhibition in experiment [6] (filed as antagonist) was 76.9%; in experiment [1] (filed as antagonist), 98.7%; in experiment [2] (filed as antagonist), 87.7%; in experiment [3] (filed as antagonist), 96.4%; in experiment [4], 39.8%; in experiment [5] (filed as antagonist), 98.8%.
Consider `Fc1ccc2c(C3CCN(CCCn4nc5ccccc5n4)CC3)noc2c1`, for which the inhibition stood at 79.7% in experiment [6] (filed as antagonist); 98.3% in experiment [1] (filed as antagonist); 83.2% in experiment [2] (filed as antagonist); 98.7% in experiment [3] (filed as antagonist); 28.9% in experiment [4]; 99% in experiment [5] (filed as antagonist).
With `Fc1ccc2c(N3CCN(CCCCn4cnc5ccccc54)CC3)noc2c1`, the inhibition in experiment [6] stood at 22.6%; in experiment [1] (filed as antagonist), 97%; in experiment [2] (filed as antagonist), 100%; in experiment [3] (filed as antagonist), 83.1%; in experiment [4] (filed as antagonist), 89.6%; in experiment [5] (filed as antagonist), 101%.
Consider `Fc1ccc2c(C3CCN(CCCn4cnc5ccccc54)CC3)noc2c1`, for which the inhibition stood at 15.9% in experiment [6]; 94.2% in experiment [1] (filed as antagonist); 97.5% in experiment [2] (filed as antagonist); 76% in experiment [3] (filed as antagonist); 69.7% in experiment [4] (filed as antagonist); 99.9% in experiment [5] (filed as antagonist).
`c1ccc2c(c1)nnn2CCCCN1CCN(c2noc3ccccc23)CC1`: the inhibition worked out at 88.8% in experiment [1] (filed as antagonist); 99.2% in experiment [2] (filed as antagonist); 38.3% in experiment [3]; 85.9% in experiment [4] (filed as antagonist); 100% in experiment [5] (filed as antagonist).
As for `O=C(c1ccc(F)cc1)C1CCN(CCn2c(=O)[nH]c3ccccc3c2=O)CC1`, the inhibition in experiment [6] (filed as antagonist) was 41.2%; in experiment [3] (filed as antagonist) it was 89.6%.
Consider `c1ccc2c(c1)nnn2OCCCN1CCN(c2nsc3ccccc23)CC1`, for which the inhibition is 100% in experiment [1] (filed as antagonist); 82.3% in experiment [2] (filed as antagonist); 81.3% in experiment [3] (filed as antagonist); 44.2% in experiment [4] (filed as antagonist); 93.7% in experiment [5] (filed as antagonist).
In the case of `Fc1ccc2c(N3CCN(CCCn4cnc5ccccc54)CC3)noc2c1`, the inhibition in experiment [6] turned out to be 24.9%; in experiment [1] (filed as antagonist) it was 98%; in experiment [2] (filed as antagonist), 98.4%; in experiment [3] (filed as antagonist), 87.3%; in experiment [4] (filed as antagonist), 52.8%; in experiment [5] (filed as antagonist), 100%.
As for `COc1ccccc1N1CCN(CCCOc2cccc(C)c2C)CC1`, the results for the inhibition in experiment [1], in experiment [2] and in experiment [5] (filed as antagonist) were 37.7%, 7.19% and 40.1%, respectively.
With `COc1ccccc1N1CCN(CCCCn2cnc3ccccc32)CC1`, the inhibition in experiment [1] (filed as antagonist) was 68.7%; in experiment [2], 22.8%; in experiment [3] it was -4.99%; in experiment [4] it was -0.88%; in experiment [5] (filed as antagonist), 86.9%.
Regarding `FC(F)(F)c1cccc(N2CCN(CCCCCCn3nnc4ccccc43)CC2)c1`, the inhibition is -9.54% in experiment [6]; 53.5% in experiment [1] (filed as antagonist); 4.15% in experiment [2]; 11.3% in experiment [3]; 63.3% in experiment [5] (filed as antagonist).
As to `FC(F)(F)c1cccc(N2CCN(CCCCn3nnc4ccccc43)CC2)c1`, the inhibition was 63.4% in experiment [1] (filed as antagonist); 38% in experiment [2]; 0% in experiment [3]; -5.08% in experiment [4]; 72.5% in experiment [5] (filed as antagonist).
In the case of `FC(F)(F)c1cccc(N2CCN(CCn3nnc4ccccc43)CC2)c1`, the inhibition in experiment [1] was determined as 18.9%; in experiment [5], 3.42%.
For `Clc1cccc(N2CCN(CCCCn3cnc4ccccc43)CC2)c1`, the inhibition in experiment [1] (filed as antagonist) is 67.2%; in experiment [2] (filed as antagonist), 71.6%; in experiment [3] it was -1.87%; in experiment [4], 15.4%; in experiment [5] (filed as antagonist) it was 98.5%.
For `Fc1ccc2c(N3CCN(CCCCn4nnc5ccccc54)CC3)noc2c1`, the inhibition came out at 95.4% in experiment [1] (filed as antagonist); 95% in experiment [2] (filed as antagonist); 71.5% in experiment [3] (filed as antagonist); 98.6% in experiment [4] (filed as antagonist); 96.9% in experiment [5] (filed as antagonist).
Take `COc1cccc(N2CCN(CCCCn3cnc4ccccc43)CC2)c1`: the inhibition in experiment [1] was 13.1%; in experiment [2] (filed as antagonist), 55%; in experiment [4] it was -1.06%; in experiment [5] (filed as antagonist) it was 95.6%.
Regarding `FC(F)(F)c1cccc(N2CCN(CCCCCCn3nc4ccccc4n3)CC2)c1`, the results for the inhibition in experiment [1], in experiment [2] and in experiment [5] were 9.94%, 7.06% and 30.3%, respectively.
As to `FC(F)(F)c1cccc(N2CCN(CCCn3nc4ccccc4n3)CC2)c1`, the inhibition in experiment [1] (filed as antagonist) was 44.7%; in experiment [2] it was -9.63%; in experiment [4], -8.07%; in experiment [5] it was 20.7%.
In the case of `c1ccc2nn(CCCCN3CCN(c4noc5ccccc45)CC3)nc2c1`, the inhibition in experiment [1] (filed as antagonist) stood at 84.9%; in experiment [2] (filed as antagonist), 94%; in experiment [3] it was 5.31%; in experiment [4] (filed as antagonist), 69.5%; in experiment [5] (filed as antagonist), 99%.
With `FC(F)(F)c1cccc(N2CCN(CCCCCn3nnc4ccccc43)CC2)c1`, the inhibition in experiment [1] (filed as antagonist) was 71.4%; in experiment [2] it was 13%; in experiment [3], 7.37%; in experiment [5] (filed as antagonist), 75.3%.
`FC(F)(F)c1cccc(N2CCN(CCCCCn3nc4ccccc4n3)CC2)c1`: the inhibition in experiment [1] is 14%; in experiment [2] it was 14.8%; in experiment [4], 8.76%; in experiment [5] (filed as antagonist) it was 44.8%.
As for `COc1cccc(OC)c1OCCNCC1COc2ccccc2O1` (centres undefined), the values for the inhibition in experiment [2] (filed as antagonist), in experiment [4] (filed as antagonist) and in experiment [5] (filed as antagonist) were 87%, 46.3% and 102%, respectively.
For the compound `Fc1cccc(N2CCN(CCCCn3cnc4ccccc43)CC2)c1`, the inhibition in experiment [1] is 1.87%; in experiment [2], 21.3%; in experiment [4], -3.72%; in experiment [5] (filed as antagonist), 80.1%.
The corresponding values for `FC(F)(F)c1cccc(N2CCN(CCCCn3nc4ccccc4n3)CC2)c1` are 38.1%, -1.54%, -7.22% and 53%.
In the case of `Cc1nc2ccccc2n1CCCCN1CCN(c2cccc(C(F)(F)F)c2)CC1`, the inhibition was -5.62% in experiment [1], 79.8% in experiment [2] (filed as antagonist), 6.89% in experiment [4] and 98.9% in experiment [5] (filed as antagonist).
